# Test results from patent publication US10517871B2, “Survivin-targeting anti-tumor agents and uses thereof” (Indiana University Research and Technology Corporation, priority 2015, dated 2019).
# Entries after “also recorded” stand apart in the source; their conditions may differ. Residues, ends and D or L forms follow the SMILES beside them. *: point of attachment. Cbz = O=C(OCc1ccccc1)*
# Experiments:
# human cancers = details: several phase II trials; cited from earlier work
# survivin in PC3 cells [1] = target: T1, survivin in PC3 cells (Homo sapiens, UniProt O15392); assay: Proteasome inhibitor reversal of compound-induced survivin degradation; assay type: cell-based; details: for effect of proteasome inhibitor on LQZ-7F-induced survivin degradation: co-treatment with LQZ-7F
# T1 construct: endogenous in cells; host or cells: PC-3 cells
# DU145 cells = assay: MTT cell survival assay, DU145; assay type: cell-based, human; details: compared with LQZ-7
# Method: (§1) Human prostate cancer cell lines DU145 (top) and PC3 cells (bottom) were cultured in the presence of vehicle DMSO or 20 μM compounds off in-silico screening for 3 days followed by MTT assay. Cells survived in the presence of various compounds were normalized to that treated by DMSO vehicle. Arrows indicate compounds that inhibited >50% in cell survival. (*p<0.05; **p<0.01).
# (§2) These assays were performed as previously described^49,50. Briefly, MTT assay were performed by seeding 2500 cells in 96-well plate and cultured 24 hours before addition of survivin inhibitors at different concentrations and continuous culture for 3 days. The cells were then subjected to MTT assay. For colony formation assay, 100 cells/well were seeded in 6-well plates and cultured for 24 hours before addition of survivin inhibitors or DMSO vehicle. The cells were continuously cultured in the presence of survivin inhibitors or DMSO for 10-14 days followed by staining with crystal violet and counting manually.
# PC-3 cells [2] = assay: MTT cell survival assay, PC-3; assay type: cell-based, human; details: PC3, MTT, compared with LQZ-7
# Method: as §1, §2
# [3] = target: T2, ectopic Flag-tagged survivin in HEK293 cells (Homo sapiens, UniProt O15392); assay: Western blot of ectopic tagged survivin in HEK293; assay type: cell-based
# T2 construct: expressed in transfected cells; host or cells: HEK293 cells, CMV promoter
# cancer cells = details: read-out: IC50 for proliferation of cancer cells; cited from earlier work
# survivin = survivin (Homo sapiens, UniProt O15392); details: cited from earlier work
# [4] = target: survivin and its partner Ran protein (Homo sapiens, UniProt O15392); details: cited from earlier work
# [5] = test system: multiple human cancer cell lines (acute myeloid leukemia, breast, colon, lung, pancreas, prostate, ovary); assay: MTT assay, multiple human cancer cell lines; assay type: cell-based; details: range over all cell lines tested, read-out: IC50 for survival of cancer cell lines
# Method: Toward this goal, we tested the effect of LQZ-7F on survival of multiple human cancer cell lines representing acute myeloid leukemia and cancers of breast, colon, lung, pancreas, prostate, and ovary using MTT assay.
# as §2
# survivin in DU145 cells = target: T3, survivin in DU145 cells (Homo sapiens, UniProt O15392); assay: Western blot of endogenous survivin, DU145; assay type: cell-based; details: vs vehicle
# T3 construct: endogenous in cells; host or cells: DU145
# survivin in PC3 cells [6] = target: T1, survivin in PC3 cells; assay: Western blot of endogenous survivin, PC3; assay type: cell-based; details: vs vehicle
# [7] = target: T4, survivin in DU145 and PC-3 cells (Homo sapiens, UniProt O15392); assay: Survivin half-life determination (cycloheximide chase); assay type: cell-based; details: PC-3, cycloheximide pre-treated, 5 μM LQZ-7F
# T4 construct: endogenous in cells; host or cells: DU145 and PC-3 cells
# Method: PC-3 cells were pre-treated with cycloheximide (CHX) to inhibit protein synthesis followed by chasing for different times in the presence of LQZ-7F or DMSO control and Western blot analysis of remaining survivin.
# The effect of survivin inhibitor on the half-life of survivin was determined as previously described^51. […] The cells were then harvested for Western blot analysis of survivin.
# purified survivin = purified survivin (Homo sapiens, UniProt O15392); assay: Pull-down assay with sepharose-immobilized compound; assay type: binding; details: CNBr-activated sepharose, vs control beads
# Source text: LQZ-7F was immobilized onto CNBr-activated Sepharose and used to pull down recombinant survivin, followed by separation on SDS-PAGE and silver staining.
# To investigate if LQZ-7F indeed binds to survivin, we took advantage of the primary amine group and immobilized LQZ-7F onto CNBr-activated sepharose for a pull-down assay using purified survivin.
# PC3 cells = assay: Colony formation assay, PC3; assay type: cell-based, human; design: unit of the concentration uncertain; details: control approximately 62%
# Method: as §2
# A549 cells = assay: Colony formation assay, A549; assay type: cell-based, human; details: control 45%
# Method: as §2
# PC-3 cells [8] = assay: Microtubule structure by α-tubulin immunostaining; assay type: cell-based, human; details: PC-3, 2 μM, 24 hours
# Method: PC3 cells were treated without or with 2 μM LQZ-7F for 24 hours followed by immunostaining of α-tubulin and counter-stained with DAPI. The images were captured using confocal microscopy.
# PC-3 xenograft tumors = assay: PC-3 xenograft mouse model efficacy; assay type: in vivo, NOD/SCID mice
# Method: We next determined if LQZ-7F is active in suppressing tumor growth in vivo using xenograft animal model. For this purpose, NOD/SCID mice were first implanted subcutaneously with PC-3 cells to establish xenograft tumors. PC-3 cell was chosen because it has highest IC50 (FIG. 6). When the xenograft tumor reached the size of ˜100 mm^3, the mice were randomized into two groups and treated with 25 mg/kg LQZ-7F or vehicle control via IP injection once every three days for total of 8 treatments. The growth of the xenograft tumors were measured using a caliper and body weight was monitored every three days for a total of 30 days. […] In fact, the body weight of the control group dropped slightly possibly due to disease burden of xenograft tumors. This symptom appears to be alleviated by LQZ-7F treatment, consistent with smaller tumor size in the treatment group.
# For efficacy study, 3×10^6 PC-3 cells were injected subcutaneously in the flanks of 10 NOD/SCID mice. When the tumor volume reached about 100 mm^3, the mice were randomized into two different groups (5/group) with one group treated by vehicle control and the other by LQZ-7F at 25 mg/kg via IP injection once every three days for total of 8 treatments. Tumor volume and body weight were measured […]. On the 30th day after the initial treatment, mice were euthanized and the tumor tissues were harvested, weighed, and subjected to hematoxylin and eosin (H&E) staining as well as Western blot and immunohistochemistry analysis of survivin.
# 14-3-3σ = target: T5, 14-3-3σ (Homo sapiens, UniProt P31947); assay: Non-denaturing PAGE of 14-3-3σ dimerization; assay type: biochemical; details: 100 μM
# T5 sequence (P31947 1-248): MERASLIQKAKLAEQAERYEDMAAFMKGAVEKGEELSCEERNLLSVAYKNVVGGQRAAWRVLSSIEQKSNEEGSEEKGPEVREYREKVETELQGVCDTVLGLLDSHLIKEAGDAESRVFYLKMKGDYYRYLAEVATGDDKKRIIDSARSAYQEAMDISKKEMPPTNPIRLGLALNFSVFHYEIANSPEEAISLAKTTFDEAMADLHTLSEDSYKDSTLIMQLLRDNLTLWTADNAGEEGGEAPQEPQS
# Method: After centrifugation at 11,000×g for 10 minutes, the supernatants were separated by electrophoresis on 15% Tris/glycine polyacrylamide gel followed by transfer to PVDF membrane for western blot analysis as previously described^48.
# [9] = test system: survivin mRNA in DU145 cells; assay: Real-time RT-PCR of survivin mRNA; assay type: cell-based, human; details: DU145, 48 hrs
# T1 sequence (O15392 whole entry): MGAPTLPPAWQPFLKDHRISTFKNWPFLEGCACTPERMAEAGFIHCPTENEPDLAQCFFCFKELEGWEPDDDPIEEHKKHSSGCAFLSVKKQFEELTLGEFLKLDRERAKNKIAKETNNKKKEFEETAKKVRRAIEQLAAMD
# T2 sequence (O15392 whole entry): as above
# T3 sequence (O15392 whole entry): as above
# survivin and its partner Ran protein, sequence (O15392 whole entry): as above
# purified survivin, sequence (O15392 whole entry): as above
# survivin, sequence (O15392 whole entry): as above
# T4 sequence (O15392 whole entry): as above
compound,measurement,setting,value
COCCn1c2c([n+](Cc3cnccn3)c1C)C(=O)c1ccccc1C2=O [YM155],clinical efficacy,human cancers,limited or modest at best efficacy
CC(C)C[C@@H](C=O)NC(=O)[C@H](CC(C)C)NC(=O)[C@H](CC(C)C)NC(=O)OCc1ccccc1 [MG132] (Cbz-Leu-Leu-Leu-aldehyde),effect of proteasome inhibitor on LQZ-7-induced survivin loss,"survivin in PC3 cells [1]; co-treatment with LQZ-7, PC-3",reversed
same,effect of proteasome inhibitor on LQZ-7F-induced survivin degradation,survivin in PC3 cells [1],able to rescue
Cc1cccc(Nc2nc3nonc3nc2N/N=C/c2cc3c(cc2[N+](=O)[O-])OCO3)c1C [LQZ-7D],IC50 in words,DU145 cells,low IC50
same,IC50 in words,PC-3 cells [2],low IC50
same,level of ectopic tagged survivin,[3],no effect
N#Cc1c(-c2cc(OCc3ccccc3)cc(OCc3ccccc3)c2)cc(-c2cc(Cl)ccc2O)[nH]c1=O [LLP3],IC50,cancer cells,14 to 38 µM
same,effect on survivin dimerization or its expression,survivin,no effect
same,interaction between survivin and Ran protein,[4],inhibited
CC(C)C[C@H](NC(=O)[C@H](Cc1ccccc1)NC(=O)c1cnccn1)B(O)O [bortezomib],effect of proteasome inhibitor on LQZ-7F-induced survivin degradation,survivin in PC3 cells [1],able to rescue
Cc1cccc(Nc2nc3nonc3nc2N/N=C/c2ccc(-c3ccc(Cl)c([N+](=O)[O-])c3)o2)c1C [LQZ-7A],IC50 in words,DU145 cells,low IC50
same,IC50 in words,PC-3 cells [2],low IC50
same,level of ectopic tagged survivin,[3],no effect
Nc1nonc1C(=O)N/N=C1\c2ccccc2-c2nc3nonc3nc21 [LQZ-7F],IC50 in words,DU145 cells,lower IC50 than the parent compound
same,IC50 in words,PC-3 cells [2],lower IC50 than the parent compound
same,IC50,[5],0.4 to 4.4 µM
same,endogenous survivin protein level,survivin in DU145 cells,effectively suppressed
same,endogenous survivin protein level,survivin in PC3 cells [6],effectively suppressed
same,level of ectopic tagged survivin,[3],reduced survivin protein level; also recorded: completely eliminated survivin
same,degradation of endogenous survivin,[7],increased degradation
same,pull-down of survivin by immobilized compound,purified survivin,successfully pulled down
same,colony formation efficiency,"PC3 cells; PC3, 0.2 (unit uncertain)",approximately 52%
same,colony formation efficiency,"PC3 cells; PC3, 0.5 (unit uncertain)",~12%
same,colony formation efficiency,"PC3 cells; PC3, 1 (unit uncertain)",~8%
same,colony formation efficiency,"A549 cells; A549, 0.2",approximately 2.5%
same,colony formation efficiency,"A549 cells; A549, 0.5",~0%
same,microtubule structure,PC-3 cells [8],severely disrupted
same,mitotic arrest,PC-3 cells [8],many cells are arrested in mitotic phase
same,body weight of mice,"PC-3 xenograft tumors; 25 mg/kg IP once every three days, 8 treatments",remained constant
same,growth of xenograft tumors,"PC-3 xenograft tumors; 25 mg/kg IP once every three days, 8 treatments, vs vehicle",significantly inhibited
same,average weight of final tumors,"PC-3 xenograft tumors; 25 mg/kg IP, day 30, vs control group",significantly less
same,apoptotic cells in tumors,"PC-3 xenograft tumors; 25 mg/kg IP, vs control-treated tumors",more apoptotic cells
same,survivin in xenograft tumors,"PC-3 xenograft tumors; Western blot and IHC, vs control-treated group",dramatically reduced
Cc1cccc(Nc2nc3nonc3nc2N/N=C/c2ccc(-c3cccc(C(=O)O)c3)o2)c1C [LQZ-7],effect on 14-3-3σ dimerization,14-3-3σ,no effect
same,survivin mRNA level,[9],no effect
